Source: patent EP0851756B1, “USE OF ONDANSETRON IN THE MANUFACTURE OF A MEDICAMENT FOR THE TREATMENT OF TREMOR” (GLAXO GROUP LIMITED, priority 1995, dated 1997)
Values joined by “and” are separate entries in the source; they are usually repeats but may differ in a detail not shown here. Equal values may be shown once.

How the values were obtained:
Assay type in all cases: in vivo, patients
[1] = tested on: cerebellar tremor caused by MS, cerebellar degeneration or drug toxicity; experiment: Placebo-controlled, double blind, crossover study: manual co-ordination (spiral copying, word copying or line drawing) judged by blind observers; parameters: key to Spiral Writing drug: 0 = none; + = a little; ++ = moderate; +++ = a lot of improvement
Experimental: (§1) A placebo-controlled, double blind, crossover study of intravenous ondansetron in twenty patients with cerebellar tremor caused by MS, cerebellar degeneration or drug toxicity was conducted. Most had tremor based upon cerebellar involvement from MS; three had familial degenerative disorders involving the cerebellum and one had acquired lithium toxicity. The clinical information and prior treatment of the patients is outlined below in Table 1. Patients were randomly assigned to receive intravenous ondansetron (8mg or a placebo, consisting of normal saline). The drug was given by intravenous bolus injection. Patients were given the alternate agent at a later interval. The principal outcome measure was the change in manual co-ordination tasks as assessed by spiral copying, word copying or line drawing and the time to complete a nine-hole peg test. Only 12 patients had sufficient co-ordination to complete the nine-hole peg test. The clinical outcome was measured at baseline and one hour following the infusion. Figures 1 (a), (b) and (c) represent an attempt to copy a spiral by the first mentioned patient in Table 1. Figure 1(a) represents an attempt prior to treatment with ondansetron; figure 1(b) an attempt after receiving placebo; and figure 1 (c) an attempt after receiving ondansetron.

[2] = tested on: cerebellar tremor caused by MS, cerebellar degeneration or drug toxicity; experiment: Clinical observations: tolerability, long-term use, withdrawal, oral dosing
[3] = tested on: cerebellar tremor caused by MS, cerebellar degeneration or drug toxicity; experiment: Placebo-controlled, double blind, crossover study: subjective response and patient identification of treatment assignment; parameters: key to Subjective drug response: 0 = none; + = a little; ++ = moderate; +++ = a lot of improvement
Experimental: A placebo-controlled, double blind, crossover study of intravenous ondansetron in twenty patients with cerebellar tremor caused by MS, cerebellar degeneration or drug toxicity was conducted. Most had tremor based upon cerebellar involvement from MS; three had familial degenerative disorders involving the cerebellum and one had acquired lithium toxicity. The clinical information and prior treatment of the patients is outlined below in Table 1. Patients were randomly assigned to receive intravenous ondansetron (8mg or a placebo, consisting of normal saline). The drug was given by intravenous bolus injection. Patients were given the alternate agent at a later interval. The clinical outcome was measured at baseline and one hour following the infusion. Patient identification of treatment assignment was correct in 12/20 instances and this was based upon efficacy. None believed placebo to be better (p=0.014; Fisher exact ratio).

[4] = tested on: cerebellar tremor caused by MS, cerebellar degeneration or drug toxicity; experiment: Placebo-controlled, double blind, crossover study: time to complete a nine-hole peg test
Experimental: as §1, with “infusion.” for “infusion. Figures 1 (a), (b) and (c) represent an attempt to copy a spiral by the first mentioned patient in Table 1. Figure 1(a) represents an attempt prior to treatment with ondansetron; figure 1(b) an attempt after receiving placebo; and figure 1 (c) an attempt after receiving ondansetron.”

[5] = individual patients, 8mg intravenous bolus, baseline vs one hour following the infusion

Structure (SMILES): Cc1nccn1CC1CCc2c(c3ccccc3n2C)C1=O (stereo not drawn) [ondansetron, 1,2,3,9-tetrahydro-9-methyl-3-[(2-methyl-1H-imidazol-1-yl)methyl]-4H-carbazol-4-one]
- favourable clinical response, MS subgroup ([1]; MS subgroup of 16 patients, number with a response, p=0.001): 13
- favourable clinical response identified by a panel of three blind observers ([1]; entire study group, 8mg intravenous, p=0.009 vs placebo (Fisher exact ratio)): 13 of the 20
- Spiral Writing drug [1, 5]: + (6×) and +++ (4×) and ++ (4×) and 0 (5×)
- Spiral Writing drug, Ratio ([1]; patients with improvement / patients assessed, 8mg intravenous, placebo 1/19): 13/19
- sustaining of the effect in the long term ([2]; long term use): could be sustained in the long term
- reproduction of the effect of intravenous ondansetron by oral dosing ([2]; oral ondansetron (8-16mg)): could be reproduced
- tolerability ([2]; patients with cerebellar tremor): well tolerated
- tremor after withdrawal of the medication ([2]; withdrawal): tremor returning to pre-study levels
- Patient identification of treatment assignment correct ([3]; based upon efficacy, none believed placebo to be better (p=0.014; Fisher exact ratio)): 12/20
- Subjective drug response [3, 5]: ++ (5×) and 0 (8×) and + (3×) and +++ (3×) and + (dysarthria)
- speech after treatment ([3]; one patient with cerebellar degeneration too disabled to complete the tasks (Cd2, Table 1)): improved speech
- Subjective drug response, Ratio ([3]; patients with improvement / patients assessed, 8mg intravenous, placebo 0/18): 12/20
- 9 hole peg-drug ([4]; individual patients, 8mg intravenous bolus, one hour following the infusion): 110 secs and 63 secs and 155 secs and 55 secs (2×) and 48 secs and 180 secs and 85 secs and 57 secs and 45 secs and 70 secs and 29 secs
- 9 hole peg-drug (secs), Mean ([4]; mean of 12 patients, 8mg intravenous, placebo 87±12): 79 ± 13 s
- mean time for the completion of the nine hole peg test ([4]; ± standard error, 8mg intravenous, placebo 87 ± 12, p=0.04 (Mann Whitney, one tailed, paired)): 79 ± 13 s
